In US7223888B2, “Mu opioid receptor ligands: methods of use and synthesis” (President and Fellows of Harvard College, priority 2002, dated 2007):
Like-named read-outs stand apart in the source and are kept apart here.

Legend:
KOR = target: T1, KOR (Cavia porcellus, UniProt P41144); assay: Opioid receptor competitive binding assay, KOR (3H-U-69,593); design: species or system guinea pig; details: for Ki KOR/Ki MOR: Table 12, selectivity for MOR versus KOR
T1 construct: from tissue; host or cells: guinea pig cerebellum preparation
Description: (§1) For selected compounds, Ki for MOR, DOR, and KOR were determined according to the following procedure: Recombinant hMOR-1 membrane preps from stably transfected CHO cells and recombinant hDOR-1 membrane preps from stably transfected HEK-293 cells were purchased from Amersham Biosciences. Guinea pig cerebellum preparations were used for KOR assays.
(§2) Each microassay from an assay plate was filtered through an individual well of a Packard GF/B 96-well filter plate (glass fiber filter) to collect the membranes. Each well was washed twice with 200 μL of ice cold wash buffer (50 mM Tris, pH 7.4). The filter plate was allowed to dry overnight, the back was sealed, and Packard Bioscience Microscint PS scintillation fluid (75 μL) was added to each well, which was then counted for ^3H for 2 minutes using a Packard Bioscience TopCount scintillation counter plate reader.
(§3) Each compound was assayed at 8 concentrations, using half-log serial dilutions. Each concentration was tested in triplicate, and the ^3H cpm were averaged.
(§4) This triplicate experiment was repeated three times for the MOR and twice for the DOR and the KOR.

hMOR-1 = target: T2, hMOR-1 (Homo sapiens, UniProt P35372); assay: Opioid receptor competitive binding assay, MOR (3H-DAMGO)
T2 construct: purchased Amersham Biosciences; host or cells: stably transfected CHO cells (membrane preparation)
Description: as §1, §2, §3
(§5) This concentration was determined experimentally by scintillation counting an aliquot of the radioligand stock solution used in the assay.
(§6) Kd=the binding constant for the radioligand.
as §4

hDOR-1 = target: T3, hDOR-1 (Homo sapiens, UniProt P41143); assay: Opioid receptor competitive binding assay, DOR; details: for Ki DOR/Ki MOR: Table 12, selectivity for MOR versus DOR (3H-DPDPE, hDOR-1)
T3 construct: purchased Amersham Biosciences; host or cells: stably transfected HEK-293 cells (membrane preparation)
Description: as §1, §2, §3, §5, §6, §4

[1] = Ki KOR, Table 9, 3H-U-69,593, guinea pig cerebellum preps, errors two standard deviations
[2] = Ki MOR, Table 3, 3H-DAMGO, hMOR-1 stably transfected into CHO cells, errors 95% confidence interval
[3] = Ki DOR, Table 6, footnote:, hDOR-1 stably transfected into HEK-293 cells, errors two standard deviations

| Structure (SMILES) | Ki (KOR; [1]) [nM] | Ki KOR/Ki MOR (KOR) | Ki (hMOR-1; [2]) [nM] | Ki (hDOR-1; [3]) [nM] | Ki DOR/Ki MOR (hDOR-1) | Ki (KOR; read-out: Ki KOR) [nM] | Ki (hMOR-1; read-out: Ki MOR) [nM] | Ki (hDOR-1; read-out: Ki DOR) [nM] |
| --- | --- | --- | --- | --- | --- | --- | --- | --- |
| NC(Cc1ccc(O)cc1)C(O)C/C=C/C(O)C(Cc1ccccc1)C(=O)NC(CO)Cc1ccccc1 (single isomer, unassigned) [(S,S,R,R)-11, (E)-8-Amino-2-benzyl-3,7-dihydroxy-9-(4-hydroxy-phenyl)-non-4-enoic acid (1-hydroxymethyl-2-phenyl-ethyl)-amide] | 2900 ± 400 | 180 | 16 ± 1 | 620 ± 80 | 39 | – | – | – |
| NC(=O)C(Cc1ccccc1)NC(=O)C(Cc1ccccc1)C(O)CCCC(O)C(N)Cc1ccc(O)cc1 (single isomer, unassigned) [(S,S,S,R)-6, 8-Amino-2-benzyl-3,7-dihydroxy-9-(4-hydroxy-phenyl)-nonanoic acid (1-carbamoyl-2-phenyl-ethyl)-amide] | – | – | 98 ± 31 | – | – | 3900 ± 1700 | – | – |
| NC(Cc1ccc(O)cc1)C(O)C/C=C/C(O)C(Cc1ccccc1)C(=O)NC(CO)Cc1ccccc1 (single isomer, unassigned) [(S,R,R,R)-11, (E)-8-Amino-2-benzyl-3,7-dihydroxy-9-(4-hydroxy-phenyl)-non-4-enoic acid (1-hydroxymethyl-2-phenyl-ethyl)-amide] | 3400 ± 1300 | 120 | 28 ± 5 | 960 ± 100 | 34 | – | – | – |
| NC(Cc1ccc(O)cc1)C(O)C/C=C/C(O)C(Cc1ccccc1)C(=O)NCCc1ccccc1 (single isomer, unassigned) [(S,S,S,R)-10, (E)-8-Amino-2-benzyl-3,7-dihydroxy-9-(4-hydroxy-phenyl)-non-4-enoic acid phenethyl-amide] | 1800 ± 300 | 86 | 21 ± 1 | 3600 ± 100 | 170 | – | – | – |
| NC(=O)C(Cc1ccccc1)NC(=O)C(Cc1ccccc1)C(O)/C=C/CC(O)C(N)Cc1ccc(O)cc1 (single isomer, unassigned) [(S,R,R,R)-2, (E)-8-Amino-2-benzyl-3,7-dihydroxy-9-(4-hydroxy-phenyl)-non-4-enoic acid (1-carbamoyl-2-phenyl-ethyl)-amide] | 1200 ± 100 | 18 | 67 ± 38 | 1400 ± 300 | 21 | – | – | – |
| NC(=O)C(Cc1ccccc1)NC(=O)C(Cc1ccccc1)C(O)/C=C/CC(O)C(N)Cc1ccc(O)cc1 (single isomer, unassigned) [(S,S,S,R)-2, (E)-8-Amino-2-benzyl-3,7-dihydroxy-9-(4-hydroxy-phenyl)-non-4-enoic acid (1-carbamoyl-2-phenyl-ethyl)-amide] | 1300 ± 500 | 150 | 8.8 ± 0.7 | 510 ± 10 | 57 | – | – | – |
| NC(=O)C(Cc1ccccc1)NC(=O)C(Cc1ccccc1)C(O)/C=C\CC(O)C(N)Cc1ccc(O)cc1 (single isomer, unassigned) [(S,R,S,R)-9, (Z)-8-Amino-2-benzyl-3,7-dihydroxy-9-(4-hydroxy-phenyl)-non-4-enoic acid (1-carbamoyl-2-phenyl-ethyl)-amide] | 1700 ± 400 | 7 | 260 ± 70 | 10000 ± 2000 | 39 | – | – | – |
| C=CC(O)C(Cc1ccccc1)NC(=O)C(Cc1ccccc1)C(O)/C=C/CC(O)C(N)Cc1ccc(O)cc1 (single isomer, unassigned) [(S,R,R,R)-12, (E)-8-Amino-2-benzyl-3,7-dihydroxy-9-(4-hydroxy-phenyl)-non-4-enoic acid (1-benzyl-2-hydroxy-but-3-enyl)-amide] | 970 ± 80 | 26 | 37 ± 1 | 570 ± 280 | 15 | – | – | – |
| NC(Cc1ccc(O)cc1)C(O)C/C=C/C(O)C(Cc1ccccc1)C(=O)NC(CO)Cc1ccccc1 (single isomer, unassigned) [(S,S,S,R)-11, (E)-8-Amino-2-benzyl-3,7-dihydroxy-9-(4-hydroxy-phenyl)-non-4-enoic acid (1-hydroxymethyl-2-phenyl-ethyl)-amide] | 6000 ± 700 | 600 | 10 ± 2 | 1100 ± 100 | 110 | – | – | – |
| NC(=O)C(Cc1ccccc1)NC(=O)C(Cc1ccccc1)C(O)CCCC(O)C(N)Cc1ccc(O)cc1 (single isomer, unassigned) [(S,R,S,R)-6, 8-Amino-2-benzyl-3,7-dihydroxy-9-(4-hydroxy-phenyl)-nonanoic acid (1-carbamoyl-2-phenyl-ethyl)-amide] | – | – | – | – | – | 6600 ± 3500 | 190 ± 20 | 4000 ± 100 |
